Test results published in the NIST ThermoML archive (doi:10.1021/acs.jced.5b01023).
Values joined by “and” are separate entries in the source; they are usually repeats but may differ in a detail not shown here. Identical values can stand only once.

Columns and labels:
[1] = refractive index (Na D-line) (dimensionless); details: 101 kPa, Liquid, Standard Abbe refractometry
[2] = for viscosity / mass density: 101 kPa, Liquid; for viscosity: Capillary tube (Ostwald / Ubbelohde) method; for mass density: Vibrating tube method
[3] = xn = mol fraction of the nth substance listed; details: for viscosity / mass density: 101 kPa, Liquid; for viscosity: Capillary tube (Ostwald / Ubbelohde) method; for mass density: Vibrating tube method
[4] = refractive index (Na D-line) (dimensionless); xn = mol fraction of the nth substance listed; details: 101 kPa, Liquid, Standard Abbe refractometry, x2 = 0

CC(C)O [propan-2-ol]
Details | mass density, [2] [kg/m3] | refractive index, [1] | viscosity, [2] [mPa·s]
288.15 K | 789.18 | 1.37933 | 2.752
298.15 K | 780.84 | 1.37517 | 2.018
308.15 K | 772.23 | 1.37093 | 1.507
318.15 K | 763.27 | 1.36643 | 1.15
328.15 K | 753.89 | 1.36173 | 0.895
338.15 K | 744.02 | 1.35682 | 0.704

[2], Wilhelmy plates
Details | surface tension liquid-gas [mN/m]
288.15 K | 21.6
298.15 K | 21.2
308.15 K | 20.5
318.15 K | 19.6
328.15 K | 18.7
338.15 K | 17.4

CC(=O)[O-].CCn1cc[n+](C)c1 [1-ethyl-3-methylimidazolium acetate]
Details | mass density, [2] [kg/m3] | refractive index, [1] | viscosity, [2] [mPa·s]
288.15 K | 1105.2 | 1.50285 | 283.8
298.15 K | 1099.03 | 1.50069 | 139
308.15 K | 1092.93 | 1.49803 | 77.32
318.15 K | 1086.86 | 1.49527 | 47.37
328.15 K | 1080.82 | 1.49266 | 31.29
338.15 K | 1074.83 | 1.48995 | 21.85
348.15 K | 1068.88 | 1.48721 | 16.01

[2], Wilhelmy plates
Details | surface tension liquid-gas
278.2 K | 48.1 mN/m
288.15 K | 47.7 mN/m
298.15 K | 47.1 mN/m
308.15 K | 46.6 mN/m and 46.1 mN/m
318.15 K | 46.1 mN/m
328.15 K | 45.9 mN/m
338.15 K | 45.4 mN/m
348.15 K | 45.1 mN/m

CO [methanol]
[2], Wilhelmy plate
Details | surface tension liquid-gas [mN/m]
278.2 K | 23.8
288.2 K | 23.6
298.2 K | 22.7
308.2 K | 21.9
318.2 K | 21

CO [methanol] + CC(=O)[O-].CCn1cc[n+](C)c1
[3], Wilhelmy plate, x2 = 0
Details | surface tension liquid-gas [mN/m]
278.2 K | 23.8
288.2 K | 23.6
298.2 K | 22.7
308.2 K | 21.9
318.2 K | 21

CCCO [propan-1-ol] + CC(=O)[O-].CCn1cc[n+](C)c1
[4]
Details | refractive index
288.15 K | 1.38694
298.15 K | 1.38303
308.15 K | 1.37914
318.15 K | 1.375
328.15 K | 1.37075
338.15 K | 1.36667
348.15 K | 1.36201

[3], Wilhelmy plates, x2 = 0
Details | surface tension liquid-gas [mN/m]
288.15 K | 23.9
298.15 K | 23.4
308.15 K | 22.4
318.15 K | 22
328.15 K | 20.9
338.15 K | 19.7
348.15 K | 19

[3], x2 = 0
Details | mass density [kg/m3] | viscosity [mPa·s]
288.15 K | 807.55 | 2.506
298.15 K | 799.56 | 1.952
308.15 K | 791.46 | 1.545
318.15 K | 783.2 | 1.238
328.15 K | 774.72 | 1.006
338.15 K | 765.98 | 0.824
348.15 K | 756.91 | 0.684

CC(=O)[O-].CCn1cc[n+](C)c1 [1-ethyl-3-methylimidazolium acetate] + CO
surface tension liquid-gas [mN/m], [3], Wilhelmy plate
Details | x1 = 0.1 | x1 = 0.2 | x1 = 0.3 | x1 = 0.4 | x1 = 0.5 | x1 = 0.6 | x1 = 0.6999 | x1 = 0.8003 | x1 = 0.9003 | x1 = 1
278.2 K | 28.5 | 32.7 | 35.9 | 38.4 | 40.3 | 42.1 | 44.3 | 45.9 | 47.6 | 48.1
288.2 K | 28.1 | 32.1 | 35.3 | 38 | 40 | 41.6 | 43.8 | 45.1 | 46.9 | 47.7
298.2 K | 27.5 | 31.6 | 35 | 37.5 | 39.6 | 41.1 | 43.3 | 44.7 | 46.4 | 47.1
308.2 K | 26.8 | 31.1 | 34.5 | 37.1 | 39 | 40.8 | 42.8 | 44.2 | 45.9 | 46.6
318.2 K | 26.3 | 30.6 | 33.9 | 36.5 | 38.7 | 40.4 | 42.4 | 43.9 | 45.3 | 46.1

CC(C)O [propan-2-ol] + CC(=O)[O-].CCn1cc[n+](C)c1
[4]
Details | refractive index
288.15 K | 1.37933
298.15 K | 1.37517
308.15 K | 1.37093
318.15 K | 1.36643
328.15 K | 1.36173
338.15 K | 1.35682

[3], Wilhelmy plates, x2 = 0
Details | surface tension liquid-gas [mN/m]
288.15 K | 21.6
298.15 K | 21.2
308.15 K | 20.5
318.15 K | 19.6
328.15 K | 18.7
338.15 K | 17.4

[3], x2 = 0
Details | mass density [kg/m3] | viscosity [mPa·s]
288.15 K | 789.18 | 2.752
298.15 K | 780.84 | 2.018
308.15 K | 772.23 | 1.507
318.15 K | 763.27 | 1.15
328.15 K | 753.89 | 0.895
338.15 K | 744.02 | 0.704

CCCO [propan-1-ol]
Details | mass density, [2] [kg/m3] | refractive index, [1] | viscosity, [2] [mPa·s]
288.15 K | 807.55 | 1.38694 | 2.506
298.15 K | 799.56 | 1.38303 | 1.952
308.15 K | 791.46 | 1.37914 | 1.545
318.15 K | 783.2 | 1.375 | 1.238
328.15 K | 774.72 | 1.37075 | 1.006
338.15 K | 765.98 | 1.36667 | 0.824
348.15 K | 756.91 | 1.36201 | 0.684

[2], Wilhelmy plates
Details | surface tension liquid-gas [mN/m]
288.15 K | 23.9
298.15 K | 23.4
308.15 K | 22.4
318.15 K | 22
328.15 K | 20.9
338.15 K | 19.7
348.15 K | 19
